Read-outs that look alike come from different tables or passages of the source.
Test system: folate receptor-positive KB cells
Assay: In vitro concentration-dependent cytotoxic activity (3H-thymidine incorporation)
Assay type: cell-based
Procedure: The compounds described herein are evaluated using an in vitro cytotoxicity assay that predicts the ability of the drug to inhibit the growth of folate receptor-positive KB cells. The KB cells are exposed for up to 7 h at 37° C. over a range of concentrations of folate-drug conjugate in the absence or presence of at least a 100-fold excess of folic acid. The cells are then rinsed once with fresh culture medium and incubated in fresh culture medium for 72 hours at 37° C. Cell viability is assessed using a ^3H-thymidine incorporation assay.
Cells were heavily seeded in 24-well Falcon plates and allowed to form nearly confluent monolayers overnight. Thirty minutes prior to the addition of test article, spent medium was aspirated from all wells and replaced with fresh folate-free RPMI (FFRPMI). Note, designated wells received media containing 100 μM folic acid; and, cells within the latter wells were used to determine the targeting specificity, since cytotoxic activity produced in the presence of excess folic acid (enables competition for FR binding) would signify the portion of the total activity that was unrelated to FR-specific delivery. Following one rinse with 1 mL of fresh FFRPMI containing 10% heat-inactivated fetal calf serum, each well received 1 mL of media containing increasing concentrations of test article (4 wells per sample) in the presence or absence of 100 μM free folic acid (a binding site competitor). Treated cells were pulsed for 2 h at 37° C., rinsed 4 times with 0.5 mL of media, and then chased in 1 mL of fresh media up to 70 h. Spent media was aspirated from all wells and replaced with fresh media containing 5 μCi/mL ^3H-thymidine. Following a further 2 h 37° C. incubation, cells were washed 3 times with 0.5 mL of PBS and then treated with 0.5 mL of ice-cold 5% trichloroacetic acid per well. After 15 min, the trichloroacetic acid was aspirated and the cell material solubilized by the addition of 0.5 mL of 0.25 N sodium hydroxide for 15 min. Four hundred and fifty μL of each solubilized sample were transferred to scintillation vials containing 3 mL of Ecolume scintillation cocktail and then counted in a liquid scintillation counter. Final results are expressed as the percentage of ^3H-thymidine incorporation relative to untreated controls.
As shown in the following table, dose-dependent cytotoxicity is measurable, and in most cases, the IC50 values (concentration of drug conjugate required to reduce ^3H-thymidine incorporation into newly synthesized DNA by 50%) are in the low nanomolar range.

[1] = Homo sapiens, KB, read-out: Cytotoxicity IC50 (nM)
[2] = concentration required to reduce 3H-thymidine incorporation into newly synthesized DNA by 50%, 2 h pulse at 37° C., chase up to 70 h, read-out: Cytotoxicity IC50

| Compound | IC50 [1] [nM] | IC50 [2] [nM] |
| --- | --- | --- |
| CCC(C)[C@H](NC(=O)[C@H]1CCCCN1C)C(=O)N(COC)[C@H](C[C@@H](OC(C)=O)c1nc(C(=O)N[C@@H](Cc2ccc(O)cc2)C[C@H](C)C(=O)O)cs1)C(C)C (stereo partly drawn) [EC0313, Methoxy Tubulysin] | 9 | – |
| CCC(C)[C@H](NC(=O)[C@H]1CCCCN1C)C(=O)N(COCCO)[C@H](C[C@@H](OC(C)=O)c1nc(C(=O)N[C@@H](Cc2ccc(O)cc2)C[C@H](C)C(=O)O)cs1)C(C)C (stereo partly drawn) [EC0346, 2-Hydroxyethoxy Tubulysin] | 18 | – |
| CCC(C)[C@H](NC(=O)[C@H]1CCCCN1C)C(=O)N(COCCC(C)C)[C@H](C[C@@H](OC(C)=O)c1nc(C(=O)N[C@@H](Cc2ccc(O)cc2)C[C@H](C)C(=O)O)cs1)C(C)C (stereo partly drawn) [EC0356] | 12 | – |
| CCC(C)[C@H](NC(=O)[C@H]1CCCCN1C)C(=O)N(CSCCS)[C@H](C[C@@H](OC(C)=O)c1nc(C(=O)N[C@@H](Cc2ccc(O)cc2)C[C@H](C)C(=O)O)cs1)C(C)C (stereo partly drawn) [EC0374, 2-Mercaptoethylthio Tubulysin] | 24 | – |
| CCC(C)[C@H](NC(=O)[C@H]1CCCCN1C)C(=O)N(CO)[C@H](C[C@@H](OC(C)=O)c1nc(C(=O)N[C@@H](Cc2ccc(O)cc2)C[C@H](C)C(=O)O)cs1)C(C)C (stereo partly drawn) [EC0386] | 42 | – |
| C=CCCN(C(=O)[C@@H](NC(=O)[C@H]1CCCCN1C)C(C)CC)[C@H](C[C@@H](OC(C)=O)c1nc(C(=O)N[C@@H](Cc2ccc(O)cc2)C[C@H](C)C(=O)O)cs1)C(C)C (stereo partly drawn) [EC0550, N-Homoallyl Tubulysin] | 2 | – |
| CCCSCN(C(=O)[C@@H](NC(=O)[C@H]1CCCCN1C)C(C)CC)[C@H](C[C@@H](OC(C)=O)c1nc(C(=O)N[C@@H](Cc2ccc(O)cc2)C[C@H](C)C(=O)O)cs1)C(C)C (stereo partly drawn) [EC0623] | 0.48 | – |
| CC[C@H](C)[C@H](NC(=O)[C@H]1CCCCN1C)C(=O)N(COC(=O)CC(C)C)[C@H](C[C@@H](OC(C)=O)c1nc(C(=O)N[C@@H](Cc2ccc(O)cc2)C[C@H](C)C(=O)O)cs1)C(C)C [Tubulysin A, reference compound] | – | 2 |
| Tubulysin B [reference compound] | – | 2.6 |
